# Laboratory results: ChEMBL document CHEMBL3507680, “University of Dundee, Gates Library screen for HepG2 cell viability”
# Experiment: Human HepG2 cell viability assay in 384 well format
# Format: toxicity, cell-based
# Design: dose 125 nL, time 70.5 hour; concentration not given beside the values
# Conditions: HepG2 cells, read-out: Inhibition
row,Structure (SMILES),cytotoxicity at 70.5 h
1,COCC(=O)N1C[C@H]2CNC[C@@]2(C(=O)NCc2nc(C)cc(C)n2)C1,-7.28%
2,Cc1nc[nH]c1CN(C)CC1CCCN(CCc2ccc(Cl)cc2)C1 (centres undefined),20.5%
3,COCCN1C[C@@H]2CN(S(=O)(=O)c3cccs3)C[C@@H]2C1=O,-8.88%
4,CCc1ccc(NC(=O)Nc2c(O)oc3ccccc3c2=O)cc1,-9.4%
5,CO[C@@H]1CC[C@H]2[C@H]1OCCN2C(=O)COc1ccc(C)cc1,-4.98%
6,COC(=O)c1cccn1C1CCN(C(=O)c2cc(C)ccc2O)CC1,2.48%
7,Cc1occc1CNC(=O)N1CCC(Cc2cnn(C)c2)C1 (centres undefined),-2.55%
8,Cc1noc(C2CCN(C(=O)c3cc(Br)ccc3F)CC2)n1,-2.54%
9,CCn1cc(NC(=O)NCC(c2ccsc2)N(C)C)cn1 (centres undefined),-6.99%
10,Cc1cc(C(=O)N(Cc2c(C)nn(C)c2C)C(C)C)nc(C)n1,17%
11,Cc1nccc(C2CN(S(=O)(=O)N(C)C)C2)n1,-1.63%
12,Cc1nn(C)c2c(N3CCN(C(=O)C4CCCO4)CC3)ncnc12 (centres undefined),1.72%
13,Cc1cc(C(=O)N2CCCC2)ccc1NCCO,-10.2%
14,Cc1ccc(C2(CN3CCN(Cc4cnc(C)n4C)CC3)CC2)cc1,32.9%
15,CCOc1cc(CNC(=O)c2cc(-c3ccccn3)no2)ccn1,-6.7%
16,Cc1cc(S(C)(=O)=O)c(C)c(S(=O)(=O)NCC2CCC2)c1,-9.88%
17,COC(C)Cc1nc(-c2cnn3c(C)cc(C)nc23)no1 (centres undefined),-97.5%
18,CC(C)(O)c1cn(C2CCN(C(=O)CCC(F)(F)F)CC2)nn1,-2.56%
19,CNC(=O)C(NC(=O)c1c(C)noc1C)c1ccc(F)c(F)c1 (centres undefined),2.39%
20,O=C(CCc1ccccc1)NCC1CCN(Cc2ccsc2)CC1,5.29%
21,Cc1nc(-c2ccccc2F)sc1C(=O)N1CCC(=O)CC1,-8.75%
22,CC(C)CS(=O)(=O)CC(=O)N1CCCC1c1noc(C2CC2)n1 (centres undefined),-8.35%
23,CO[C@@H]1CCN(C(=O)Cc2ccc(F)cc2)[C@@H]1Cc1cccnc1,-3.63%

row,Structure (SMILES),cytotoxicity at 70.5 h
1,Cn1c(C(=O)N2CCC(CC(N)=O)CC2)c(Cl)c2ccccc21,28.2%
2,Cc1nc2cc(NCc3cnn(C)c3)ccc2n1C,-2.05%
3,Cc1nc(CN2CCc3nc(NC(C)C)nc(C)c3C2)cs1,-6.71%
4,O=C(Cc1ccccc1F)N1CCN(C(=O)c2ccoc2)CC1,-1.84%
5,CN(C)C(=O)[C@H]1CC[C@@H]2[C@@H](CCN2C(=O)N(C)C)O1,1.41%
6,CCn1c(SCC(=O)N2CCOCC2)nc2cc(C)[nH]c2c1=O,0.779%
7,COCCN1CCO[C@@H]2CN(C(=O)c3ccc4[nH]ccc4c3)CC[C@@H]2C1,-11.1%
8,O=C(Nc1ncnc2c1CCC2)c1cccc(F)c1,11.5%
9,N#CC1(c2ccccc2)CCN(C(=O)CN2C(=O)CCNC2=O)CC1,-0.486%
10,CN(C)Cc1nnc(C2CCN(c3nccc(N)n3)CC2)n1C1CC1,2.16%
11,O=C(c1ccco1)N(c1ccc(F)cn1)C1CCOCC1,26.4%
12,Cc1cc(C)n(-c2cncc(NCCNC(=O)C(C)C)n2)n1,-3.05%
13,Cc1cc(C)n(C2CCCN(C(=O)Cc3cccs3)C2)n1 (centres undefined),11%
14,COC1CCN(S(=O)(=O)N2C[C@H](c3ccccc3)[C@@H](N)C2)CC1,-2.79%
15,O=C(CCc1cccs1)NCC1CCCN1c1cccnn1 (centres undefined),3.16%
16,COc1cccc(N2C(=O)CC3(CCCNC3)C2=O)c1 (centres undefined),-5.35%
17,c1cncc(N2CCOCC3(CCCN(c4nncs4)C3)C2)c1 (centres undefined),-21.7%
18,O=C(O)c1ccc(S(=O)(=O)Nc2cnn(CC(F)(F)F)c2)cc1,3.28%
19,CCN1CC2(CC1=O)CN(C(=O)NC)CCN(S(C)(=O)=O)C2 (centres undefined),-6.12%
20,Cc1nc2cc(C3CCOCC3)nn2c(NCC2COCCO2)c1C (centres undefined),20.9%
21,O=S(=O)(Cc1c(F)cccc1Cl)NCCCN1CCCCCC1,-1.18%
22,Cc1ccc(-n2cnnn2)cc1NCC(=O)Nc1ccccc1Cl,-101%
23,CC(C)n1cnnc1CN1CCC2(CCCN(C3CCCCC3)C2=O)C1 (centres undefined),-2.59%

row,Structure (SMILES),cytotoxicity at 70.5 h
1,Cc1ccc(CCNC(=O)c2cccnc2)o1,30.2%
2,Cc1ccc(CN(C)C(=O)CN2CCc3ccccc3C2)o1,-6.98%
3,CC1CCN(S(=O)(=O)c2cccn(CC(=O)NC(C)(C)C)c2=O)CC1,-9.49%
4,CSc1nc(C2CC2)nc(C)c1C(=O)NCc1ccco1,16.1%
5,Cc1ccc(N(CCC#N)C(=O)CN2CCCC2c2cccs2)cc1 (centres undefined),-2.42%
6,CNC(=O)[C@H]1C[C@H]2OCC[C@H]2N(CC2CCOCC2)C1,-8.61%
7,O=C(NCC1CCOC1)c1csc(-c2ccc(Cl)cc2)n1 (centres undefined),-26.9%
8,Cc1cccc(C2CCCN2S(=O)(=O)N(C)C)n1 (centres undefined),-2.59%
9,O=C(c1cc(F)ccc1F)C1CCN(C(=O)c2ccccn2)CC1,-12.2%
10,CN(C)CCn1ccnc1C1CCCN(c2nccc3ccccc23)C1 (centres undefined),1.12%
11,OC1(CN2CCCCC2)CCN(c2cccc(C(F)(F)F)n2)C1 (centres undefined),-14.1%
12,CC1c2ncc(Cn3cccn3)n2CCN1Cc1ccc(F)cc1 (centres undefined),-2.85%
13,Cc1ccc(C(=O)NC2CCCN(C)C2)c(=O)[nH]1 (centres undefined),-12.5%
14,Cc1[nH]c(=O)[nH]c(=O)c1CN1CCCC(CCc2c(F)cccc2F)C1 (centres undefined),-12.5%
15,CCOCCN1CCN(CC(O)c2ccc(OC)cc2)CC1 (centres undefined),36.2%
16,Cc1cc(C(=O)N2CCc3ncnc(-c4cnn(C)c4)c3CC2)no1,2.85%
17,Cc1ccccc1C1CN(c2cnn(C)c(=O)c2Cl)CCO1 (centres undefined),-1.35%
18,Cc1cc(CC(C)Nc2nc(-c3cccnc3)nc3c2CNC3)[nH]n1 (centres undefined),-12%
19,Cc1ccc(C(=O)NC2CC2)c(-n2cnnn2)c1C,-17.7%
20,CN(Cc1ccncc1)C1CC2(CCN(Cc3ccccn3)CC2)C1,-6.76%
21,CNC(=O)Cc1ccc(NC(=O)NCC(C)c2ncc(C)s2)cc1 (centres undefined),-12.5%
22,Cc1csc(NC(=O)C2(C)CCCO2)n1 (centres undefined),-7.86%
23,Cn1cnc2c1CCN(Cc1csc(-c3ccccc3)n1)C2,24.1%

row,Structure (SMILES),cytotoxicity at 70.5 h
1,CC(C)(O)c1cc(CC2(NCC3CCCCC3)COC2)no1,-16.3%
2,Cc1ccc(CN2Cc3nnn(C)c3C(COCc3ccccc3)C2)s1 (centres undefined),4.74%
3,COc1ccc(-c2cccc(-c3ccn(CC4COCCO4)n3)c2)nn1 (centres undefined),-5.24%
4,CNC(=O)CN1CCc2c(CNc3nccs3)n[nH]c2C1,-10.9%
5,Cc1cc2cccc(NC(=O)N3CCC(N4CCSCC4)CC3)c2o1,-11%
6,CC1CN(Cc2cccc(CNC3CCCC3)c2)CCO1 (centres undefined),12.8%
7,Cc1cc(CN2CCCC(c3cc(C(F)(F)F)[nH]n3)C2)no1 (centres undefined),-15.8%
8,Cn1cccc1C(=O)N1CC[C@H]2[C@H]1CCN2CC1CCOCC1,-0.0713%
9,Cc1cc(C(=O)N2C[C@@H](C(=O)O)[C@H](C(C)C)C2)cs1,-2.46%
10,c1ccc2ncc(CC3CCNCC3)cc2c1,13.4%
11,O=C(NCc1cc[nH]n1)NCC(O)c1ccc(F)cc1F (centres undefined),-9.36%
12,CC(C)OCCOCc1cccc(NC(=O)NCc2ccccn2)c1,-8.39%
13,CN1CCN(S(=O)(=O)N2CCCCC2CCc2ccc(O)cc2)CC1 (centres undefined),-4.09%
14,O=C(NCc1nncn1C1CC1)c1ccccc1Oc1cccnc1,-7.51%
15,CCOCc1ccc(CNC2=NCCCN2)cc1,-2.49%
16,Cn1cc(C(=O)Nc2ccc(CC(=O)NCC(F)(F)F)cc2)nn1,-6.55%
17,CCc1nc(CN(C)C(=O)CSC)no1,-11.3%
18,CSCC[C@H](N)c1nnc(SCc2cc(C)ccc2C)o1,-5.14%
19,O=C(Nc1cccnc1)N1CCC(n2ccc(C(F)(F)F)n2)CC1,-3.71%
20,CCS(=O)(=O)c1ccc2oc([C@H]3CCN(CC4CCCCC4)C3)nc2c1,13.1%
21,Nc1ncc(CN2CCC(O)(c3ccccc3F)CC2)cn1,-2.71%
22,CCOC(=O)N1CCN(c2nc(NC)c3ccccc3n2)CC1,-15.5%
23,NC(=O)C1CCCN1C(=O)c1cc(C2CC2)nc2ccc(F)cc12 (centres undefined),18.9%

row,Structure (SMILES),cytotoxicity at 70.5 h
1,Cc1nccn1C1CCCN(C(=O)c2cc3c(F)cccc3[nH]2)C1 (centres undefined),-1.56%
2,CC(=O)N1CCC(CCc2ccnc(NC(=O)c3ccccn3)c2)CC1,12%
3,NC(=O)COc1cccc(C(=O)N2CCCC(n3cccn3)C2)c1 (centres undefined),28.9%
4,O=C(CCNC(=O)N1CCC(c2ccccc2)C1)N1CCCCC1 (centres undefined),-13%
5,Cc1ccc(C(C)NCc2cn(CCC(N)=O)c3ccccc23)cc1C (centres undefined),-3.87%
6,COCCc1noc(CN2CC(n3nc(C)cc3C)C2)n1,4.95%
7,O=C(c1cnc(Nc2ccccc2)nc1)N1CCS(=O)(=O)CC1,-8.85%
8,Cc1cncc(C2CCN(Cc3ccncc3)CC2)n1,-7.83%
9,Cn1ccc(C(=O)NCc2ccc(N3CCOCC3)nc2)cc1=O,-12%
10,Cc1cnc2c(c1NCc1ccc(F)cc1)c(=O)n(C)c(=O)n2C,12.7%
11,Cc1noc(C2CCN(CC(=O)N3CCNC(=O)C3)CC2)n1,17.7%
12,COc1ccc(CNC(=O)CNc2cc3c(cc2Cl)OCCO3)cc1,-0.455%
13,COCCN1C(=O)CCC12CCCN(c1ncc(F)cn1)CC2 (centres undefined),1.58%
14,Cc1cnc(C(=O)NCc2ccc3c(c2)CCCN3C)cn1,-4.01%
15,O=C(CC1CNCCO1)N1CCC(c2cc(N3CCCC3)ncn2)CC1 (centres undefined),12.3%
16,CCN1CCN(C(=O)c2cc(F)cc3nc(C)c(C)nc23)CC1,-12.2%
17,O=C(c1ccco1)N1C[C@H]2CCCN(Cc3nccs3)[C@H]2C1,-11.3%
18,O=C(NCc1cccnc1)NC1CCCN(c2ncccn2)C1 (centres undefined),-10.3%
19,COCC1Cn2nnc(-c3cnn(C)c3)c2CN1Cc1cccs1 (centres undefined),-12.1%
20,Cc1cc(C(=O)N[C@H]2Cc3ccccc3[C@@H]2N)c(=O)[nH]c1C,1.3%
21,COCCN(C(=O)c1nc(-c2ccco2)sc1C)C1CC1,-2.88%
22,Fc1cccc(Cl)c1CNCc1ccccn1,-12.6%
